Drawing on PubChem BioAssay (NCI), this text covers GI50 and TGI for 13 compounds.

Where “and” joins values, the source holds several entries; their conditions need not be identical. Identical values can stand only once.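 Each compound was tested at five concentrations against cells in 96-well plates for 48 hours. GI50 = concentration required for 50% inhibition of growth. Definition used: TGI = concentration required for complete inhibition of growth.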

Some test systems named below: ACHN renal; OVCAR-5 ovarian; HL-60(TB) leukemia; EKVX NSCLC; OVCAR-4 ovarian; NCI-H23 lung; MDA-MB-435; A498 renal; CCRF-CEM leukemia; DU-145 prostate.
Assay in all cases: inhibition of tumour cell growth, NCI panel, 48 h

As for `CO/N=C(\COc1ccc2c(c1)[nH]c1ccccc12)c1ccc(OC)cc1`, the GI50 in the assay on ACHN renal was 18.8 µM; in the assay with OVCAR-5 ovarian, 61 µM; in the assay on HL-60(TB) leukemia it was 62.2 µM; with EKVX NSCLC it was 26 µM; with OVCAR-4 ovarian, 10.5 µM; in the assay with NCI-H23 lung it was 32.2 µM. For the same compound, the GI50 in the assay on MDA-MB-435 was 43.3 µM; in the assay on A498 renal it was 19.2 µM; in the assay with CCRF-CEM leukemia, above 100 µM; with DU-145 prostate, above 100 µM. Besides, the TGI in the assay with ACHN renal, with OVCAR-5 ovarian, with HL-60(TB) leukemia, with EKVX NSCLC, in the assay with OVCAR-4 ovarian and in the assay with NCI-H23 lung was above 100 µM in each case. The TGI with MDA-MB-435 is above 100 µM; in the assay on A498 renal, 46 µM; in the assay with CCRF-CEM leukemia, above 100 µM; in the assay with DU-145 prostate, above 100 µM.
For `O=C(O)c1nc(NCc2nc3cc(Cl)ccc3o2)n[nH]1`, the GI50 with ACHN renal, in the assay with OVCAR-5 ovarian, with HL-60(TB) leukemia, in the assay with EKVX NSCLC, in the assay on OVCAR-4 ovarian and in the assay on NCI-H23 lung was above 100 µM each time. Also, the GI50 with MDA-MB-435, in the assay on A498 renal, in the assay with CCRF-CEM leukemia and in the assay with DU-145 prostate was above 100 µM each time. Also, the TGI in the assay with ACHN renal, in the assay on OVCAR-5 ovarian, in the assay on HL-60(TB) leukemia, in the assay on EKVX NSCLC, in the assay with OVCAR-4 ovarian and in the assay with NCI-H23 lung was above 100 µM throughout. Also, the TGI with MDA-MB-435, with A498 renal, in the assay with CCRF-CEM leukemia and in the assay on DU-145 prostate was above 100 µM in each case.
`O=C(Nc1cccc(Cl)c1)Nn1cnnc1`: the GI50 in the assay with ACHN renal, in the assay with OVCAR-5 ovarian, in the assay with HL-60(TB) leukemia, with OVCAR-4 ovarian, with NCI-H23 lung and in the assay with MDA-MB-435 was above 50 µM throughout. Further, the GI50 with A498 renal, in the assay on CCRF-CEM leukemia and in the assay on DU-145 prostate was above 50 µM in each case. Moreover, the TGI with ACHN renal was above 100 µM; with OVCAR-5 ovarian, > 50 µM and 22.5 µM; with HL-60(TB) leukemia, above 100 µM; with EKVX NSCLC, above 100 µM; with OVCAR-4 ovarian, above 100 µM; in the assay with NCI-H23 lung, above 100 µM. Also, the TGI in the assay with MDA-MB-435, with A498 renal, with CCRF-CEM leukemia and with DU-145 prostate was above 100 µM throughout.
Consider `CCN1C(=O)N(CC)C2C1NN=c1s/c(=C\c3ccc(Cl)cc3Cl)c(=O)n12` (centres undefined), for which the GI50 with ACHN renal was 0.0513 µM; in the assay with OVCAR-5 ovarian, 0.0547 µM; in the assay on HL-60(TB) leukemia it was 0.0227 µM; in the assay with EKVX NSCLC, 0.0423 µM; in the assay with OVCAR-4 ovarian it was 0.0792 µM; in the assay on NCI-H23 lung, 0.0505 µM. Also, the GI50 is 0.0206 µM with MDA-MB-435, 0.0194 µM in the assay with A498 renal, 0.0361 µM with CCRF-CEM leukemia and 0.0332 µM with DU-145 prostate. Further, the TGI in the assay on ACHN renal is above 51.2 µM; in the assay on OVCAR-5 ovarian it was above 81.5 µM; in the assay on HL-60(TB) leukemia it was 0.0534 µM; with EKVX NSCLC, above 100 µM; with OVCAR-4 ovarian, above 95.9 µM; in the assay on NCI-H23 lung, above 100 µM. The TGI in the assay with MDA-MB-435 was 0.0572 µM; with A498 renal it was 0.0667 µM; in the assay on CCRF-CEM leukemia, above 100 µM; in the assay with DU-145 prostate it was 1.38 µM.
Regarding `C=C1CCC2C3(C)COC(C)(C)OC3CCC2(C)C1C/C=C1/C(=O)OCC1OC(C)=O` (centres undefined), the GI50 in the assay with ACHN renal is 3.12 µM; with OVCAR-5 ovarian, 3.78 µM; with HL-60(TB) leukemia it was 2.55 µM; in the assay on EKVX NSCLC, 9.5 µM; in the assay with OVCAR-4 ovarian, 2.6 µM; in the assay on NCI-H23 lung it was 4.34 µM. Also, the GI50 with MDA-MB-435 was 2.54 µM; in the assay on A498 renal, 16.6 µM; with CCRF-CEM leukemia, 1.81 µM; with DU-145 prostate, 4.28 µM. The TGI amounted to 10.5 µM in the assay on ACHN renal; 11.2 µM with OVCAR-5 ovarian; 7.14 µM with HL-60(TB) leukemia; 24.4 µM in the assay with EKVX NSCLC; 10.1 µM in the assay with OVCAR-4 ovarian; 16.1 µM with NCI-H23 lung. Also, the TGI in the assay with MDA-MB-435 was found to be 11.3 µM; in the assay on A498 renal, 31.5 µM; with CCRF-CEM leukemia, 11.5 µM; with DU-145 prostate, 14 µM.
For `C=CCc1c(Cl)nc(Cl)nc1Cl`, the TGI in the assay on ACHN renal was 1.2 µM; in the assay on OVCAR-5 ovarian, 2.02 µM; in the assay with HL-60(TB) leukemia, above 100 µM; with EKVX NSCLC, 2.58 µM; in the assay with OVCAR-4 ovarian, 0.84 µM; in the assay with NCI-H23 lung it was 1.81 µM. In addition, the TGI in the assay on MDA-MB-435 turned out to be 1.4 µM; in the assay on A498 renal, 3.49 µM; in the assay with CCRF-CEM leukemia, 0.0234 µM; in the assay on DU-145 prostate, 4.86 µM.
Take `CN(C)c1cc2ccccc2oc1=O`: the TGI in the assay with ACHN renal, in the assay on OVCAR-5 ovarian, in the assay on HL-60(TB) leukemia, with EKVX NSCLC, with OVCAR-4 ovarian and with NCI-H23 lung was above 100 µM each time. The TGI with MDA-MB-435, in the assay on A498 renal, with CCRF-CEM leukemia and in the assay with DU-145 prostate was above 100 µM in each case.
On to `O=C1/C(=C/c2ccc([N+](=O)[O-])cc2)CN(C(=O)CCN2CCC(=NO)CC2)C/C1=C\c1ccc([N+](=O)[O-])cc1`, for which the GI50 was 0.893 µM with ACHN renal; 1.57 µM with OVCAR-5 ovarian; 1.85 µM in the assay on HL-60(TB) leukemia; 2.3 µM in the assay on EKVX NSCLC; 1.31 µM in the assay on OVCAR-4 ovarian; 1.53 µM in the assay on NCI-H23 lung. For the same compound, the GI50 with MDA-MB-435 is 1 µM; with A498 renal, 1.75 µM; in the assay on CCRF-CEM leukemia, 0.534 µM; with DU-145 prostate it was 1.61 µM. In addition, the TGI in the assay with ACHN renal came out at 2.46 µM; with OVCAR-5 ovarian, 3.97 µM; in the assay with HL-60(TB) leukemia it was 6.88 µM; with EKVX NSCLC, 10.1 µM; in the assay with OVCAR-4 ovarian it was 5.36 µM; in the assay on NCI-H23 lung, 4.58 µM. Besides, the TGI in the assay on MDA-MB-435 is 3.45 µM; in the assay on A498 renal it was 3.95 µM; with CCRF-CEM leukemia it was 9.93 µM; in the assay on DU-145 prostate it was 4.65 µM.
Take `CCCN1C(=O)NC(=O)C(CC)(N2C(=O)c3c(F)c(F)c(F)c(F)c3C2=O)C1=O` (centres undefined): the GI50 in the assay with ACHN renal was 1.9 µM; with OVCAR-5 ovarian, 2.04 µM; in the assay on HL-60(TB) leukemia it was 1.97 µM; with EKVX NSCLC it was 2.33 µM; in the assay on OVCAR-4 ovarian it was 2.22 µM; in the assay with NCI-H23 lung, 2.17 µM. Moreover, the GI50 with MDA-MB-435 was 2.25 µM; with A498 renal, 3.93 µM; in the assay with CCRF-CEM leukemia, 1.1 µM; in the assay on DU-145 prostate, 1.7 µM. The TGI in the assay with ACHN renal is 3.69 µM; in the assay with OVCAR-5 ovarian, 4.11 µM; with HL-60(TB) leukemia it was 4.33 µM; in the assay on EKVX NSCLC, 6.62 µM; in the assay with OVCAR-4 ovarian it was 4.83 µM; in the assay with NCI-H23 lung it was 5.77 µM. Also, the TGI with MDA-MB-435 turned out to be 6.52 µM; with A498 renal, 11.6 µM; in the assay on CCRF-CEM leukemia, 3.24 µM; with DU-145 prostate, 3.27 µM.
With `NC(=O)CNC(=O)[C@@H]1CC(OCCC(=O)O)CN1C(=O)C1CCCN1C(=O)OCc1ccccc1` (some centres undefined), the TGI with ACHN renal, with OVCAR-5 ovarian, in the assay with HL-60(TB) leukemia, in the assay on EKVX NSCLC, in the assay on OVCAR-4 ovarian and with NCI-H23 lung was above 100 µM in each case. In addition, the TGI in the assay on MDA-MB-435, in the assay on A498 renal, with CCRF-CEM leukemia and in the assay with DU-145 prostate was above 100 µM throughout.
As for `O=c1oc2ccccc2c2c1Sc1ccccc1N2`, the TGI in the assay on ACHN renal, in the assay with OVCAR-5 ovarian, in the assay on HL-60(TB) leukemia, in the assay with EKVX NSCLC, in the assay on OVCAR-4 ovarian and in the assay on NCI-H23 lung was above 100 µM in each case. Also, the TGI in the assay on MDA-MB-435, with A498 renal, in the assay with CCRF-CEM leukemia and in the assay on DU-145 prostate was above 100 µM throughout.
As to `O=S(=O)(/N=c1\scc(-c2ccccc2)n1-c1ccccc1)c1ccc(N2N=C3c4ccccc4CC3C2c2ccc(Cl)cc2)cc1` (centres undefined), the GI50 with ACHN renal was 40.1 µM; with OVCAR-5 ovarian it was 38.1 µM; with HL-60(TB) leukemia, 29.6 µM; in the assay on EKVX NSCLC, 61.1 µM; in the assay on OVCAR-4 ovarian, 63.8 µM; in the assay with NCI-H23 lung, 21 µM. The GI50 with MDA-MB-435 was 24.2 µM; with A498 renal, 79.8 µM; in the assay with CCRF-CEM leukemia, 18.6 µM; in the assay on DU-145 prostate, 54.3 µM. Moreover, the TGI in the assay with ACHN renal was above 100 µM; in the assay with OVCAR-5 ovarian, above 100 µM; in the assay on HL-60(TB) leukemia, 69 µM; in the assay with EKVX NSCLC, above 100 µM; with OVCAR-4 ovarian, above 100 µM; in the assay on NCI-H23 lung, 51.3 µM. Also, the TGI is above 100 µM in the assay on MDA-MB-435, above 100 µM in the assay with A498 renal, 59.3 µM in the assay on CCRF-CEM leukemia and above 100 µM in the assay on DU-145 prostate.
Turning to `COc1ccc(-c2noc(C(=O)O)c2-c2cc(OC)c(OC)c(OC)c2)cc1`, the GI50 was 7.42 µM in the assay with ACHN renal; 5.82 µM with OVCAR-5 ovarian; 2.19 µM in the assay on HL-60(TB) leukemia; 4.77 µM with EKVX NSCLC; 9.53 µM with OVCAR-4 ovarian; 9.17 µM with NCI-H23 lung. Also, the GI50 is 0.306 µM in the assay with MDA-MB-435, 1.43 µM in the assay with A498 renal, 3.52 µM with CCRF-CEM leukemia and 3.48 µM in the assay with DU-145 prostate. Also, the TGI in the assay on ACHN renal was above 100 µM; with OVCAR-5 ovarian it was above 100 µM; in the assay with HL-60(TB) leukemia, 6.41 µM; in the assay on EKVX NSCLC it was above 100 µM; in the assay with OVCAR-4 ovarian, above 100 µM; in the assay with NCI-H23 lung, above 100 µM. The TGI in the assay on MDA-MB-435 was 1.1 µM; in the assay with A498 renal it was 7.02 µM; in the assay with CCRF-CEM leukemia, above 100 µM; with DU-145 prostate it was above 100 µM.
